From patent US9023616B2, “Oil producing microbes and method of modification thereof” (DSM Nutritional Products AG, priority 2006, dated 2015)

What was measured:
ONC-T18 [1] = assay: 13C labeled oleic acid incorporation into polyunsaturated fatty acids; format: cell-based, Thraustochytrium sp. ONC-T18; conditions: added to culture medium
[2] = test system: Schizochytrium limacinum SR21; conditions: dose dependant; cited from earlier work
ONC-T18 [3] = assay: Fatty acid production antagonist supplementation of ONC-T18 culture, fatty acid profile by FAME GC-FID; format: cell-based, Thraustochytrium sp. ONC-T18; conditions: for adrenic acid, lipid as percentage of total fatty acid / arachidic acid, lipid as percentage of total fatty acid / arachidonic acid, lipid as percentage of total fatty acid / behenic acid, lipid as percentage of total fatty acid / docosadienoic acid, lipid as percentage of total fatty acid / docosahexaenoic acid, lipid as percentage of total fatty acid / docosapentaenoic acid n-3, lipid as percentage of total fatty acid / docosapentaenoic acid n-6, lipid as percentage of total fatty acid / eicosadienoic acid, lipid as percentage of total fatty acid / eicosapentaenoic acid, lipid as percentage of total fatty acid / eicosatetraenoic acid, lipid as percentage of total fatty acid / eicosatrienoic acid, lipid as percentage of total fatty acid / eicosenoic acid, lipid as percentage of total fatty acid / heneicosapentaenoic acid, lipid as percentage of total fatty acid / hexacosanoic acid, lipid as percentage of total fatty acid / homo-gamma-linolenic acid, lipid as percentage of total fatty acid / lignoceric acid, lipid as percentage of total fatty acid / margaric acid, lipid as percentage of total fatty acid / myristic acid, lipid as percentage of total fatty acid / myristoleic acid, lipid as percentage of total fatty acid / nervonic acid, lipid as percentage of total fatty acid / oleic acid, lipid as percentage of total fatty acid / palmitic acid, lipid as percentage of total fatty acid / palmitoleic acid, lipid as percentage of total fatty acid / pentadecanoic acid, lipid as percentage of total fatty acid / pentadecenoic acid, lipid as percentage of total fatty acid / stearic acid, lipid as percentage of total fatty acid / vaccenic acid, lipid as percentage of total fatty acid: presence of the antagonist, oleic acid without glucose
Method: Media containing 25 g/l sea salt and 1 g/l yeast extract was autoclaved at 120° C. for 20 minutes. Sterilized glucose was added to the media at a concentration of 9 g/l. Sethoxydim (Supleco) was dissolved in dimethyl sulfoxide at a concentration of 5 mg/ml was then added to the media at to represent a final concentration of 100 µM. 1 ml of a 24 hour pre-culture of ONC-T 18 that had been cultured in the same media was added. Culturing was carried out in a shaker (130 rpm) for four days at room temperature. After the incubation period, cells were harvested by centrifugation at 4300 rpm for 10 minutes. The cell pellets were then freeze-dried, weighed and the oil was extracted from the cells.
(§1) The lipids were extracted and derivatized to fatty acid methyl esters (FAME) for gas chromatography analysis (GC). Transesterification and extraction was done using 200 mg freeze dried cells, with C19:0 as internal standard, added transesterification reaction mix (methanol:hydrochloric acid:chloroform, 10:1:1) mixed and heated at 90° C. for 2 hours, then allowed to cool at room temperature. FAMEs were extracted by adding 1 ml water, and 2 ml hexane:chloroform (4:1), and allow organic and aqueous phases to separate. The organic layer was extracted and treated with 0.5 g of anhydrous sodium sulfate to remove particulates and residual water. The organic solvents were evaporated under a stream of argon. The FAMEs were re-suspended in 5 ml of iso-octane and analyzed by GC-FID. The percent conversion was calculated by dividing the product produced by the sum of (the product produced plus the substrate added) and then multiplying by 100.
Media containing 6 g/l sea salt, 2 g/l yeast extract, and 8 g/l L-glutamic acid monosodium salt hydrate was autoclaved at 120° C. for 20 minutes. Sterilized D+-glucose was then added to this media at a concentration of 40 g/l. Cerulenin dissolved in ethanol at a concentration of 5 mg/ml was added to 250 ml flask and the solvent was evaporated for 1 hour prior to adding the media to the flask. The amount of cerulenin in the flask represented a final concentration of 20 mg/l. ONC-T18 was then added to the medium from a plate culture and culturing occurred in a shaker (130 rpm) at room temperature for four days. After the incubation period, cells were harvested by centrifugation at 4300 rpm for 10 minutes, washed once with distilled water, and then centrifuged again at 4300 rpm for 10 minutes. The cell pellets were then freeze-dried, weighed and the oil was extracted from the cells.
as §1, with “produced+the” for “produced plus the”
Media containing 6 g/l sea salt, 2 g/l yeast extract, and 8 g/l L-glutamic acid monosodium salt hydrate was autoclaved at 120° C. for 20 minutes. Sterilized D+-glucose wad then added at a concentration of 5 g/l or was not added to the media. Oleic acid was added to the media to represent a final concentration of 2 ml/l. […]

Compound: ^13C labeled oleic acid
- fate of 13C carbon from enriched oleic acid (in words) (ONC-T18 [1]): found in subsequent polyunsaturated fatty acids

Compound: Cc1ccc(C(=O)O)cc1 [p-toluic acid]
- EPA concentration (in words) [2]: increasing the EPA concentration
- omega-6 DPA concentration (in words) [2]: reducing the omega-6 DPA concentration

Compound: Cc1ccccc1C(=O)O [toluic acid]
- adrenic acid, lipid as percentage of total fatty acid (ONC-T18 [3]): 0.46%
- arachidic acid, lipid as percentage of total fatty acid (ONC-T18 [3]): 0.23%
- arachidonic acid, lipid as percentage of total fatty acid (ONC-T18 [3]): 0.90%
- behenic acid, lipid as percentage of total fatty acid (ONC-T18 [3]): 0.00%
- docosadienoic acid, lipid as percentage of total fatty acid (ONC-T18 [3]): 0.06%
- docosahexaenoic acid, lipid as percentage of total fatty acid (ONC-T18 [3]): 23.03%
- docosapentaenoic acid n-3, lipid as percentage of total fatty acid (ONC-T18 [3]): 0.54%
- docosapentaenoic acid n-6, lipid as percentage of total fatty acid (ONC-T18 [3]): 5.95%
- eicosadienoic acid, lipid as percentage of total fatty acid (ONC-T18 [3]): 0.79%
- eicosapentaenoic acid, lipid as percentage of total fatty acid (ONC-T18 [3]): 2.95%
- eicosatetraenoic acid, lipid as percentage of total fatty acid (ONC-T18 [3]): 0.36%
- eicosatrienoic acid, lipid as percentage of total fatty acid (ONC-T18 [3]): 0.03%
- eicosenoic acid, lipid as percentage of total fatty acid (ONC-T18 [3]): 0.14%
- heneicosapentaenoic acid, lipid as percentage of total fatty acid (ONC-T18 [3]): 0.39%
- hexacosanoic acid, lipid as percentage of total fatty acid (ONC-T18 [3]): 0.00%
- homo-gamma-linolenic acid, lipid as percentage of total fatty acid (ONC-T18 [3]): 0.17%
- lignoceric acid, lipid as percentage of total fatty acid (ONC-T18 [3]): 0.03%
- margaric acid, lipid as percentage of total fatty acid (ONC-T18 [3]): 2.69%
- myristic acid, lipid as percentage of total fatty acid (ONC-T18 [3]): 11.19%
- myristoleic acid, lipid as percentage of total fatty acid (ONC-T18 [3]): 0.00%
- nervonic acid, lipid as percentage of total fatty acid (ONC-T18 [3]): 0.18%
- oleic acid, lipid as percentage of total fatty acid (ONC-T18 [3]): 0.11%
- palmitic acid, lipid as percentage of total fatty acid (ONC-T18 [3]): 26.90%
- palmitoleic acid, lipid as percentage of total fatty acid (ONC-T18 [3]): 2.36%
- pentadecanoic acid, lipid as percentage of total fatty acid (ONC-T18 [3]): 14.93%
- pentadecenoic acid, lipid as percentage of total fatty acid (ONC-T18 [3]): 0.27%
- stearic acid, lipid as percentage of total fatty acid (ONC-T18 [3]): 1.59%
- vaccenic acid, lipid as percentage of total fatty acid (ONC-T18 [3]): 3.68%

Compound: CCC/C(=N\OCC)C1=C(O)CC(CC(C)SCC)CC1=O (stereo not drawn) [sethoxydim]
- DHA accumulated in ONC-T18, change versus control (in words) (ONC-T18 [3]; antagonist added to medium): increase in the content and proportion of DHA
- adrenic acid, lipid as percentage of total fatty acid (ONC-T18 [3]): 0.00%
- arachidic acid, lipid as percentage of total fatty acid (ONC-T18 [3]): 0.2%
- arachidonic acid, lipid as percentage of total fatty acid (ONC-T18 [3]): 0.20%
- behenic acid, lipid as percentage of total fatty acid (ONC-T18 [3]): 0.00%
- docosadienoic acid, lipid as percentage of total fatty acid (ONC-T18 [3]): 0.00%
- docosahexaenoic acid, lipid as percentage of total fatty acid (ONC-T18 [3]): 19.31%
- docosapentaenoic acid n-3, lipid as percentage of total fatty acid (ONC-T18 [3]): 0.24%
- docosapentaenoic acid n-6, lipid as percentage of total fatty acid (ONC-T18 [3]): 5.26%
- eicosadienoic acid, lipid as percentage of total fatty acid (ONC-T18 [3]): 0.14%
- eicosapentaenoic acid, lipid as percentage of total fatty acid (ONC-T18 [3]): 0.78%
- eicosatetraenoic acid, lipid as percentage of total fatty acid (ONC-T18 [3]): 0.37%
- eicosatrienoic acid, lipid as percentage of total fatty acid (ONC-T18 [3]): 0.00%
- eicosenoic acid, lipid as percentage of total fatty acid (ONC-T18 [3]): 0.00%
- heneicosapentaenoic acid, lipid as percentage of total fatty acid (ONC-T18 [3]): 1.09%
- hexacosanoic acid, lipid as percentage of total fatty acid (ONC-T18 [3]): 0.20%
- homo-gamma-linolenic acid, lipid as percentage of total fatty acid (ONC-T18 [3]): 0.10%
- lignoceric acid, lipid as percentage of total fatty acid (ONC-T18 [3]): 0.00%
- margaric acid, lipid as percentage of total fatty acid (ONC-T18 [3]): 1.49%
- myristic acid, lipid as percentage of total fatty acid (ONC-T18 [3]): 10.97%
- myristoleic acid, lipid as percentage of total fatty acid (ONC-T18 [3]): 0.03%
- nervonic acid, lipid as percentage of total fatty acid (ONC-T18 [3]): 0.00%
- oleic acid, lipid as percentage of total fatty acid (ONC-T18 [3]): 0.18%
- palmitic acid, lipid as percentage of total fatty acid (ONC-T18 [3]): 40.52%
- palmitoleic acid, lipid as percentage of total fatty acid (ONC-T18 [3]): 9.18%
- pentadecanoic acid, lipid as percentage of total fatty acid (ONC-T18 [3]): 5.5%
- pentadecenoic acid, lipid as percentage of total fatty acid (ONC-T18 [3]): 0.53%
- stearic acid, lipid as percentage of total fatty acid (ONC-T18 [3]): 1.45%
- vaccenic acid, lipid as percentage of total fatty acid (ONC-T18 [3]): 2.48%
